Series [1] is described as follows: Metabolic stability in human liver microsomes assessed as unbound intrinsic clearance at 0.5 uM measured after 4 hrs. Format: ADME, Microsome. For orientation: Microsomes from liver hold many membrane-bound enzymes, among them those of drug oxidation.
Series [2] in a line: Thermodynamic solubility of the compound at pH 7.4 measured after 48 hrs by UHPLC analysis. Format: physicochemical. To be noted: buffer, read-out: Therm_solubility.
The nature of series [3]: Metabolic stability in rat liver microsomes assessed as unbound intrinsic clearance. The class given is ADME, Microsome.
Series [4] can be described thus: Volume of distribution at steady-state in Sprague-Dawley rat at 1 mg/kg, iv measured after 24 hrs. The class given is ADME, organism-based. To be noted: in vivo, read-out: Vdss.
A short description of series [5]: Half life in Sprague-Dawley rat at 1 mg/kg, iv measured after 24 hrs. The class given is ADME, organism-based. To be noted: in vivo.
A short description of series [6]: Plasma clearance in Sprague-Dawley rat at 1 mg/kg, iv measured after 24 hrs. Format: ADME, organism-based.
Series [7] can be described thus: Unbound plasma clearance in Sprague-Dawley rat at 1 mg/kg, iv measured after 24 hrs. The class given is ADME, organism-based. To be noted: in vivo.
Series [8] in a line: Thermodynamic solubility of the compound in FaSSIF at pH 6.5 after 48 hrs by UHPLC analysis. The class given is ADME. To be noted: read-out: Therm_solubility.
Series [9] can be described thus: Drug uptake in IL17A-induced CXCL1 secretion in C57BL/6 mouse at 10 mg/kg, iv pretreated 1 hr before IL17A challenge measured after 2 hrs. To be noted: in vivo, read-out: Drug uptake. Format: ADME, organism-based.

≈ marks a conversion by molar mass, not a printed value. A value given as a limit tells only on which side of the number the result lay.

As to `C[C@H](NC(=O)[C@]1(NC(=O)c2cc(Cl)c(Cl)[nH]2)CO[C@H](c2ccccc2)C1)c1ncc2c(n1)COC2`, the results for the CL free in series [1], in [3] and in series [7] were 132 mL/min/kg, 1080 mL/min/kg and 1430 mL/min/kg, respectively. Besides, the solubility thermodynamic at 48 h in [2] was determined as 17 µM (≈ 8.78 µg/mL); in series [8], 16 µg/mL (≈ 31 µM). For the same compound, the Vd in [4] is 1.4 L/kg. Besides, in series [5], the half-life (in general, the time needed for the level to fall by half in the phase considered) is 0.47 h. Further, the clearance – broadly, the volume of plasma or blood freed of the substance per unit of time – in [6] was 46.7 mL/min/kg. Moreover, the concentration at 1 h in [9] amounted to 190 ng/mL.
As to `C[C@H](NC(=O)[C@]1(NC(=O)c2cc(Cl)c[nH]2)CO[C@H](c2ccccc2)C1)c1ncc2c(n1)CN(C1CCN(C)CC1)C2`, the CL free is less than 35 mL/min/kg in series [1], less than 60 mL/min/kg in series [3] and 48.3 mL/min/kg in [7]. Further, the solubility thermodynamic at 48 h in series [2] was 120 µM (≈ 69.4 µg/mL); in series [8], 630 µg/mL (≈ 1090 µM). The Vd in series [4] was 5.9 L/kg. In series [5], the half-life is 3.3 h. Moreover, in [6], the clearance was 21.7 mL/min/kg. Further, the concentration at 1 h in series [9] worked out at 68 ng/mL.
Regarding `COCc1ccc([C@@H]2C[C@](NC(=O)c3cc(Cl)c(Cl)[nH]3)(C(=O)N[C@@H](C)c3ncc4c(n3)CN(C3CCN(C)CC3)C4)CO2)cc1`, the CL free in series [1] is less than 31.7 mL/min/kg; in series [3], less than 53.3 mL/min/kg; in series [7] it was 250 mL/min/kg. In addition, the solubility thermodynamic at 48 h in series [2] was determined as 60 µM (≈ 39.4 µg/mL). Further, in series [4], the Vd came to 3.2 L/kg. In series [5], this compound had a half-life of 1.5 h. This compound also gave a clearance in series [6] of 33.3 mL/min/kg. For the same compound, in series [9], the concentration at 1 h came to 85 ng/mL.
For `C[C@H](NC(=O)[C@]1(NC(=O)c2cc(Cl)c(Cl)[nH]2)CO[C@H](c2ccc(F)cc2)C1)c1ncc2c(n1)CN(C1CCN(C)CC1)C2`, the CL free was less than 36.7 mL/min/kg in series [1] and 137 mL/min/kg in series [7]. Moreover, in series [2], the solubility thermodynamic at 48 h came out at 510 µM (≈ 322 µg/mL). Also, the Vd in series [4] was found to be 6.4 L/kg. Moreover, the half-life in [5] was 3.5 h. In series [6], the clearance is 21.7 mL/min/kg. For the same compound, the concentration at 1 h in series [9] was 139 ng/mL.
Turning to `COc1cccc([C@@H]2C[C@](NC(=O)c3cc(Cl)c(Cl)[nH]3)(C(=O)N[C@@H](C)c3ncc4c(n3)CN(C3CCN(C)CC3)C4)CO2)c1`, in series [1], the CL free is less than 41.7 mL/min/kg. The solubility thermodynamic at 48 h in series [2] was 532 µM (≈ 342 µg/mL).
As to `O=C(N[C@@H](CCc1ccccc1)C(=O)NCc1ncc(C2CCOCC2)cn1)c1cc(Cl)c(Cl)[nH]1`, the CL free in [1] was found to be 333 mL/min/kg. For the same compound, the solubility thermodynamic at 48 h in series [2] is 2.5 µM (≈ 1.29 µg/mL).
Turning to `COCc1cccc([C@@H]2C[C@](NC(=O)c3cc(Cl)c(Cl)[nH]3)(C(=O)N[C@@H](C)c3ncc4c(n3)CN(C3CCN(C)CC3)C4)CO2)c1`, the CL free in series [1] was less than 35 mL/min/kg. The solubility thermodynamic at 48 h in series [2] came to 660 µM (≈ 433 µg/mL).
The like results for `C[C@H](NC(=O)[C@]1(NC(=O)c2cc(Cl)c(Cl)[nH]2)CO[C@H](c2ccccc2)C1)c1ncc2c(n1)CN(C1CN(C)C1)C2` were, in that order, less than 26.7 mL/min/kg and 600 µM (≈ 351 µg/mL).
The matching figures for `C[C@H](NC(=O)[C@H](CCc1ccccc1)NC(=O)c1cc(Cl)c(Cl)[nH]1)c1ncccn1`: 200 mL/min/kg and 1.7 µM (≈ 0.759 µg/mL).
On to `C[C@H](NC(=O)[C@]1(NC(=O)c2cc(Cl)c(Cl)[nH]2)CO[C@H](c2ccccc2)C1)c1cc2c(nn1)COC2`, for which, in series [1], the CL free stood at 102 mL/min/kg. For the same compound, the solubility thermodynamic at 48 h in [2] stood at 31 µM (≈ 16 µg/mL).
As for `C[C@H](NC(=O)[C@]1(NC(=O)c2cc(Cl)c(Cl)[nH]2)CO[C@H](c2ccccc2)C1)c1ncc2c(n1)CN(CC(F)F)C2`, the CL free in [1] turned out to be 55 mL/min/kg. For the same compound, the solubility thermodynamic at 48 h in [2] came to 7.2 µM (≈ 4.17 µg/mL).
Turning to `O=C(N[C@@H](CCc1ccccc1)C(=O)NCc1ncc2c(n1)CCC2)c1cc(Cl)c(Cl)[nH]1`, in series [1], the CL free amounted to 1100 mL/min/kg. The solubility thermodynamic at 48 h in series [2] amounted to 27 µM (≈ 12.8 µg/mL).
The matching figures for `O=C(N[C@@H](CCc1ccccc1)C(=O)NCc1cccnc1)c1cc(Cl)c(Cl)[nH]1`: 1300 mL/min/kg and 230 µM (≈ 99.2 µg/mL).
